Laboratory results reported in paper PMC7249156, “Tricyclic Derivative of Acyclovir and Its Esters in Relation to the Esters of Acyclovir Enzymatic Stability: Enzymatic Stability Study” (Molecules, 2020).
Where two headings read alike, the source gives them in different places.

Tests used:
[1] = design: method as in PMID 18638532; conditions: valaciclovir; cited from earlier work
[2] = test system: esterase from porcine liver (PLE); test: Stability test in plasma (80%, 37 °C) with porcine liver esterase; format: in vitro ADME; conditions: for kobs. ± Δkobs. / t0.5: plasma 80%
Source text: For the correct interpretation of the distribution of the tested compounds under the influence of esterase, it is necessary to know the specificity of the enzymatic reactions (Scheme 1). The biotransformation occurring during enzymatic hydrolysis can be treated as a limited capacity process and described using the Michaelis–Menten equation:(2) V=−dc/dt=Vm·c/KM+c, where: c—substance concentration, V = −(dc/dt)—rate of change of substance concentration, Vm—maximum theoretical speed of the process, and KM—Michaelis constant (numerically equal to the concentration of the substance at which its elimination occurs at a rate equal to half of Vm).
In case the value of the Michaelis constant is much higher than the concentration of the substance (KM >> c), Equation (2) can be simplified to the form of:(3) V=−dc/dt=k2/KM·cE·c=Vm/KM·c=kobs.·c, where: cE—enzyme concentration.
After transformation:(4) kobs.=k2/KM·cE=Vm/KM.
A 1 U/μL aqueous pork esterase solution was prepared by diluting the suspension with 200 μL of water. Here, 168,000 Da was used as the molecular weight of the esterase and the molar concentration of the enzyme in a determined volume of the test sample of 5.0 mL was calculated (1 μL of the enzyme solution in 5.0 mL corresponded to a concentration of 5.50 × 10^−9 M).
For plastic screw-on tubes containing 4.0 mL of plasma, 0.8 mL of PBS buffer was added, mixed, and thermostated in a water bath (37 °C). A fixed volume of enzyme (0.5–11.0 μL) was added to the incubated plasma, mixed, and thermostated for 15 min. Then, 0.2 mL of the tested compound solution in DMSO (5.00 mg/mL) were added, mixed thoroughly, and proceeded as described in Section 3.4.1.
(§1) The HPLC-MS/MS method was used for analysis of the solutions hydrolyzed in plasma (80% v/v, 37 °C, 24 h) and in plasma (80%, v/v) with porcine esterase at a concentration of 5.50 × 10^−9 M (37 °C, 2 h). The samples were prepared according to the procedure described in Section 3.4.1 and Section 3.4.2, and then diluted with water in a proportion of 1:100 (v/v).

[3] = Stability test (hydrolysis) in human plasma (80%, 37 °C); format: in vitro ADME
Method: The condition for determining the values of the observed rate constants is to observe changes in the concentration of the tested compound over time ensuring degradation of at least 80% of the compound. In plasma, hydrolysis reactions were carried out until a minimum 50% loss of the tested compound was obtained except for the extremely stable 6-(4-MeOPh)-TACV under these conditions. In this case, the observed loss was 22% during the 25-h reaction. Further carrying out of this reaction in vitro in a temperature of 37 °C was not recommended (Figure 2).
Stability tests were performed in human plasma (80%, v/v) thermostated in a water bath at 37 °C. In total, 2.50 mg of each of the analyzed compounds were weighed and dissolved in 0.5 mL of DMSO (5.0 mg/mL). For plastic screw-on tubes containing 4.0 mL of plasma, 0.8 mL of PBS buffer were added, mixed, and thermostated in a water bath. Then, 0.2 mL of the tested compound solution in DMSO (5.0 mg/mL) were added to the incubated plasma. Samples were thermostated at 37 °C and at specified intervals. After mixing, 0.2 mL of the test sample were taken and transferred to 0.4 mL of the appropriate internal standard solution (Table 1). After mixing, the samples were centrifuged for […] (5 min, 13,000 rpm). The supernatant was transferred to the tubes and analyzed by the HPLC method in a suitable phase system (Table 1). The initial concentration of the tested compounds in the plasma was 200 μg/mL, while in the analyte solution (supernatant) it was 66.7 μg/mL.
as §1

[4] = Stability of the analyte (supernatant) on storage; format: physicochemical; conditions: supernatant stored in freezer (−20 °C)
Method: For each substance, samples with two concentrations in the linearity range of the method were prepared. The supernatants of both solutions were analyzed by HPLC immediately after preparation and after storage at room temperature (25 °C), in a refrigerator (4 °C) and freezer compartment (−20 °C). The degree of decomposition of the tested compounds with respect to the initial value was determined.

| SMILES | kobs. ± Δkobs. ([2]; cE 2.0 U, 1.10·10^−8 M) | t0.5 ([2]; cE 2.0 U, 1.10·10^−8 M) | kobs. ± Δkobs. ([2]; cE 3.0 U, 1.65·10^−8 M) | t0.5 ([2]; cE 3.0 U, 1.65·10^−8 M) | kobs. ± Δkobs. (pseudo-first-order rate constant of hydrolysis) ([3]; human plasma 80%) | t0.5 ([3]; human plasma 80%) | time for which analyte solution was considered stable [4] | kobs. ± Δkobs. ([2]; cE 4.0 U, 2.20·10^−8 M) | t0.5 ([2]; cE 4.0 U, 2.20·10^−8 M) | kobs. ± Δkobs. ([2]; cE 6.0 U, 3.30·10^−8 M) | t0.5 ([2]; cE 6.0 U, 3.30·10^−8 M) | kobs. ± Δkobs. ([2]; cE 5.0 U, 2.75·10^−8 M) | t0.5 ([2]; cE 5.0 U, 2.75·10^−8 M) | also measured |
| --- | --- | --- | --- | --- | --- | --- | --- | --- | --- | --- | --- | --- | --- | --- |
| CC(C)[C@H](N)C(=O)OCCOCn1cnc2c(=O)[nH]c(N)nc21 [valaciclovir] | – | – | – | – | – | – | – | – | – | – | – | – | – | t0.5 [1]: 226 h |
| CC(C)C(=O)OCCOCn1cnc2c(=O)[nH]c(N)nc21 [iBut-ACV] | (3.98 ± 0.13)·10^−3 s^−1 | 2.9 min | (5.49 ± 0.20)·10^−3 s^−1 | 2.1 min | (4.16 ± 0.16)·10^−4 s^−1 | 0.46 h | – | – | – | – | – | – | – | kobs. ± Δkobs. ([2]; cE 0.5 U, 2.75·10^−9 M): (1.24 ± 0.12)·10^−3 s^−1; t0.5 ([2]; cE 0.5 U, 2.75·10^−9 M): 9.3 min; kobs. ± Δkobs. ([2]; cE 1.0 U, 5.50·10^−9 M): (2.24 ± 0.09)·10^−3 s^−1; t0.5 ([2]; cE 1.0 U, 5.50·10^−9 M): 5.2 min |
| COc1ccc(-c2cn3c(=O)c4ncn(COCCO)c4nc3[nH]2)cc1 [6-(4-MeOPh)-TACV, 3,9-Dihydro-3-[(2-hydroxyethoxy)methyl]-6-(4-methoxyphenyl)-9-oxo-5H-imidazo[1,2-a]–purine] | (7.39 ± 0.49)·10^−6 s^−1 | 1560 min | (8.21 ± 0.58)·10^−6 s^−1 | 1410 min | (2.81 ± 0.36)·10^−6 s^−1 | 68.40 h | 27 days | (8.37 ± 0.24)·10^−6 s^−1 | 1360 min | (9.58 ± 0.39)·10^−6 s^−1 | 1210 min | – | – | degree of hydrolysis seen by HPLC-MS/MS ([2]; plasma 80% with porcine esterase 5.50·10^−9 M, 2 h): occurred to a small extent; observed loss of compound ([3]; human plasma 80%, 25-h reaction): 22%; degree of hydrolysis seen by HPLC-MS/MS ([3]; plasma 80%, 24 h): occurred to a small extent |
| CC(=O)OCCOCn1cnc2c(=O)[nH]c(N)nc21 [Ac-ACV] | – | 264 min | – | – | (6.47 ± 0.49)·10^−5 s^−1 | 2.98 h | – | (7.94 ± 0.23)·10^−5 s^−1 | 144 min | (1.15 ± 0.02)·10^−4 s^−1 | 102 min | – | – | kobs. ± Δkobs. ([2]; cE 8.0 U, 4.40·10^−8 M): (1.55 ± 0.04)·10^−4 s^−1; t0.5 ([2]; cE 8.0 U, 4.40·10^−8 M): 72 min |
| CC(C)(C)C(=O)OCCOCn1cnc2c(=O)[nH]c(N)nc21 [Piv-ACV] | (4.71 ± 0.10)·10^−4 s^−1 | 24.5 min | (8.11 ± 0.15)·10^−4 s^−1 | 14.3 min | (2.38 ± 0.17)·10^−5 s^−1 | 8.09 h | 27 days | – | – | – | – | (1.40 ± 0.04)·10^−3 s^−1 | 8.3 min | kobs. ± Δkobs. ([2]; cE 1.0 U, 5.50·10^−9 M): (2.97 ± 0.09)·10^−4 s^−1; t0.5 ([2]; cE 1.0 U, 5.50·10^−9 M): 38.9 min |
| CCOC(=O)OCCOCn1cnc2c(=O)[nH]c(N)nc21 [Etc-ACV] | (6.48 ± 0.35)·10^−4 s^−1 | 17.8 min | (8.60 ± 0.34)·10^−4 s^−1 | 13.4 min | (7.99 ± 0.37)·10^−5 s^−1 | 2.41 h | 27 days | (1.20 ± 0.03)·10^−3 s^−1 | 9.6 min | – | – | (1.54 ± 0.07)·10^−3 s^−1 | 7.5 min | – |
| Nc1nc2c(ncn2COCCOC(=O)c2cccnc2)c(=O)[nH]1 [Nic-ACV] | – | – | (5.35 ± 0.23)·10^−4 s^−1 | 21.6 min | (4.31 ± 0.23)·10^−4 s^−1 | 0.45 h | – | (5.59 ± 0.50)·10^−4 s^−1 | 20.7 min | (6.03 ± 0.22)·10^−4 s^−1 | 19.2 min | (5.77 ± 0.32)·10^−4 s^−1 | 20.0 min | – |
